The values that follow come from US20200138840A1, “PHARMACEUTICAL COMPOSITION AND TUMOR IMMUNOACTIVITY PROMOTER” (SENTAN Pharma inc., priority 2017, published 2020).

Series [1] in a line: Side effects in Example 3: body weight, meals, blood glucose, serological profiles, liver weight. To be noted: day 21. In kind it is in vivo, nude mice. As to the method:
Nude mice subcutaneously transplanted with Huh-7 cells, prepared in the same manner as in Example 1, were divided in the following six groups.
In each of the groups, the tumor volume and the body weight of the mice were measured in the same manner as in Example 1, and the average amount of meals taken per day was calculated.

Series [2] is described as follows: Side effects in Example 1: body weight, meals, blood glucose, serological profiles, liver weight. In kind it is in vivo, nude mice (BALBc-nu/nu). The settings on record: for Fasting blood glucose / Liver weight / Total cholesterol / ALT / Neutral fat: day 21. As for the experimental part: Six-week-old nude mice (male, BALBc-nu/nu mice) were subcutaneously transplanted with 1×10^7 Huh-7 cells. In order to confirm the survival and growth of the transplanted cells, the measurement of tumor size was carried out using a pair of vernier calipers. At the time point when the tumors in the mice had reached a volume of from 100 to 150 mm^3, the mice were divided into the following six groups.
In each of the groups, the tumor volume and the body weight of the mice were measured every 3 days from the start of administration. At the time points of 7 days, 14 days and 21 days after the start of administration, the average amount of meals taken per day was calculated from the amount of meals taken in the previous week. […] Further, 21 days after the start of administration, the tumors were observed, blood was collected from the mice in accordance with a conventional method, and the livers were removed from the mice. The serological profiles of the collected blood samples were measured using SPOTCHEM (trademark) EZ SP-4430 system (manufactured by Arkray, Inc.). In addition, the weight of the removed livers was measured.

For series [3] the following is noted: cited from earlier work.
The next series has as its system Hepatoma cell line Huh-7. Nature of the series: Anticancer effect of 2DG in nude mice subcutaneously transplanted with hepatoma cell line (Example 1). It counts as in vivo, nude mice (BALBc-nu/nu). The settings on record: for tumor volume over time (FIG. 2): combination with sorafenib 5 mg/kg/day orally. As to the method:
The Hepatoma cell line Huh-7 (obtained from Cell Resource Center for Biomedical Research, Cell Bank, Institute of Development, Aging and Cancer, National University Corporation Tohoku University) to be transplanted to the mice was cultured at 37° C. using a 5% CO2 incubator. Dulbecco's modified Eagle's medium (DMEM) containing 10% fetal bovine serum was used as the medium for culturing Huh-7 cells. Six-week-old nude mice (male, BALBc-nu/nu mice) were subcutaneously transplanted with 1×10^7 Huh-7 cells. In order to confirm the survival and growth of the transplanted cells, the measurement of tumor size was carried out using a pair of vernier calipers. […] (a) Control group: 200 μL of PBS was administered intraperitoneally every day. […] At the time points of 7 days, 14 days and 21 days after the start of administration, the average amount of meals taken per day was calculated from the amount of meals taken in the previous week. […] Further, 21 days after the start of administration, the tumors were observed, blood was collected from the mice in accordance with a conventional method, and the livers were removed from the mice. The serological profiles of the collected blood samples were measured using SPOTCHEM (trademark) EZ SP-4430 system (manufactured by Arkray, Inc.). In addition, the weight of the removed livers was measured.

The subject of the next series is CD3 positive T cells. The series can be described thus: Immunostaining of liver tumor tissue with CD3 antibody (Example 10). It counts as in vivo, STAM mice (C57BL6/N). To be noted: 2DG 100 mg/kg/day i.p. every day; high dose 2DG-PLGA 200 μL of 100 mg/mL once a week. As for the experimental part: Further, the immunostaining of the liver tumor tissue was carried out using a rabbit monoclonal CD3 antibody (manufactured by GeneTex, Inc.).

The mark [4] stands for this setting: 2DG 100 mg/kg/day into jugular vein once a week.
The mark [5] stands for this setting: 2DG 100 mg/kg/day intraperitoneally every day.
Where [6] appears, read: high dose 2DG 1,000 mg/kg/day i.p. (alone or with sorafenib 5 mg/kg/day orally).
Setting [7] is: low dose 2DG 100 mg/kg/day i.p. (alone or with sorafenib 5 mg/kg/day orally).
The mark [8] stands for this setting: high dose 2DG 1,000 mg/kg/day i.p., day 14 after start.

For the compound `O=CC[C@@H](O)[C@H](O)[C@H](O)CO` [2DG, 2-Deoxy-D-glucose], in series [1] (setting [4]), the ALT was found to be 49 ± 20.9 U/L, the Fasting blood glucose was 73.8 ± 14.0 mg/dL, the Liver weight is listed as 1.10 ± 0.19 g and the Neutral fat is on record as 67.6 ± 28.5 mg/dL. Also, the Total cholesterol in series [1] (setting [4]) is listed as 115.4 ± 10.1 mg/dL. Moreover, in series [1] (setting [5]), the ALT amounted to 38.6 ± 23.5 U/L, the Fasting blood glucose was 83.2 ± 38.2 mg/dL, the Liver weight was 1.35 ± 0.19 g and the Total cholesterol came to 113.8 ± 25.3 mg/dL. Also, in series [2] (setting [6]), the Fasting blood glucose was 77.2 ± 28.0 mg/dL, the Liver weight was determined as 1.10 ± 0.1 g and the Total cholesterol came out at 110.8 ± 23.6 mg/dL. In series [2] (setting [7]), this compound returned an ALT of 34.8 ± 16.2 mg/dL, a Fasting blood glucose of 79.0 ± 10.9 mg/dL, a Liver weight of 1.21 ± 0.1 g and a Neutral fat of 103.2 ± 24.7 mg/dL. In series [2] (setting [7]), this compound had a Total cholesterol of 122.6 ± 19.8 mg/dL. In addition, in series [2] (setting [8]), the “blood glucose level after administration (FIG. 5)” value is given as “marked increase in the blood glucose level” and the consciousness after administration result is “disturbance of consciousness was observed”. Also, the side-effects entry in series [3] (dose of from 63 to 88 mg/kg) is “severe side-effects such as gastrointestinal bleeding, long QT syndrome and hyperglycemia were observed”. The tolerated dose in series [3] (phase 1 clinical trial, oral administration, combined with docetaxel) was not above 63 mg/kg. Moreover, in the series with Hepatoma cell line Huh-7 (21 days after start, 2DG i.p. every day, sorafenib 5 mg/kg/day orally), the “size of the tumors (appearance, FIG. 1)” value is “decreased the size of the tumors”. Also, in the series on Hepatoma cell line Huh-7 (high dose 2DG 1,000 mg/kg/day i.p. every day), the “tumor volume over time (FIG. 2)” value is on record as “significant decrease in the tumor volume in a dose-dependent manner”. The “tumor volume over time (FIG. 2)” value with Hepatoma cell line Huh-7 (low dose 2DG 100 mg/kg/day i.p. every day) is given as “significant decrease in the tumor volume in a dose-dependent manner”. Further, in the series on CD3 positive T cells, the “infiltration of T cells into the interior of tumors (FIG. 29)” value is reported as “increased infiltration of T cells”.

In series [2] (sorafenib 5 mg/kg/day orally), `CNC(=O)c1cc(Oc2ccc(NC(=O)Nc3ccc(Cl)c(C(F)(F)F)c3)cc2)ccn1` [Sorafenib, sorafenib] returned an ALT of 35.0 ± 10.3 mg/dL, a Fasting blood glucose of 84.8 ± 11.8 mg/dL, a Neutral fat of 95.2 ± 35.7 mg/dL and a Total cholesterol of 120.4 ± 17.8 mg/dL.
